Test results: a melting point compilation (Tetko et al.; mined from patent text by program, amines drawn as free bases though some values may be those of a salt)

| melting point [°C] | Compound |
| --- | --- |
| 108 to 109 | Fc1ccc(CN2CCN(C3CC=C(c4ccc(C(F)(F)F)cc4)CC3)CC2)cc1 (stereo not given) |
| 162 to 165 | Nc1c(Br)cc(C2=NNC(=O)Cc3cc4c(cc32)OCO4)cc1Br |
| 80 to 81 | CC(C)n1nc(CC(=O)c2cccc(F)c2)ccc1=O |
| 177 to 178 | C#CCOc1ccc(/C=C/c2nc3ccccc3c(=O)o2)cc1OC |
| 152 to 154 | CC(=O)CCc1ccc(C(N)=O)cc1 |
| 64 to 65 | CCOC(=NC(=O)c1ccccc1C(F)(F)F)c1ccccc1Cl |
| 68 | CC(C)Cc1ccc(N)cc1C#N |
| 236 to 238 | O=C1CC(c2cccc(-c3csc(C(=O)NCCO)n3)c2)=Nc2ccc(-n3cccc3)cc2N1 |
| 177 to 180 | CN(c1ncnc2[nH]ccc12)C1CCCCC1 |
| 208 to 210 | O=C(C=Cc1ccccc1)c1ccc(N2CCN(c3ccncc3)CC2)cc1 |
| 47 to 52 | COc1cc(OCCCN(C)C)ccc1C(=O)NN |
| 130 | O=C(O)c1c(Cc2cc3c(cc2Cl)OCO3)c(-c2ccccc2)nn1CC1CCCC(C(=O)O)C1 (stereo not given) |
| 50 | O=C1Cc2cccc(CNC(=O)C3Cc4ccccc4N3S(=O)(=O)c3ccc(-c4cccc(C(F)(F)F)c4)cc3)c2N1 (stereo not given) |
| 217 | Cc1cccc(Cl)c1NS(=O)(=O)c1n[nH]c(N)n1 |
| 245 to 246 | O=C1NC(=O)C2(N1)C(=O)N(Cc1ccc(Cl)c(Cl)c1)c1ccc([N+](=O)[O-])cc12 (stereo not given) |
| 195 to 197 | O=C(O)CCSCC(=O)c1cc2sc(=O)[nH]c2cc1Cl |
| 134 to 137 | CN(C)C(=O)C(Nc1ccccc1)c1ccccc1 (stereo not given) |
| 100 | CCN(CC)CCC1CCCCN1C(=O)N1c2ccccc2C(=O)Nc2cccnc21 (stereo not given) |
| 191 to 192 | CCCc1nc2c(N)nc3ccccc3c2n1CC(C)C |
| 175 to 179 | c1ccc2c(c1)ncc1cncn12 |
| > 300 | COc1ccc(C(=O)Nc2cc([N+](=O)[O-])ccc2C)cc1OC |
| 175 to 176 | COCCOc1cc(NC(=O)OC(C)(C)C)c(NC(=O)CC(=O)c2cccc(C#N)c2)cc1C#Cc1ccccc1 |
| 121 to 124 | CCCCc1nc2c(N)nc3ccccc3c2n1CCCCCCCCNS(C)(=O)=O |
| 166 to 168 | COC(=O)Cn1c(C(=O)Nc2nc(-c3cc(OC)c(Cl)cc3OC)c(CCC3CCCCC3)s2)c(C)c2cc(C)ccc21 |
| 49 | C=C(C)C(=O)OCC(COC(=O)C(=C)C)Cc1ccc(-c2ccc(OC(=O)C(=C)C)cc2)cc1 |

| melting point [°C] | Compound |
| --- | --- |
| 280 | CCOC(=O)c1c[nH]c2cc(F)c(OC)cc2c1=O |
| 166 to 167 | COC(=O)C(O)=CC(=O)c1ncnc2c1ncn2Cc1ccccc1 |
| 128 to 130 | CS(=O)(=O)OCC(O)(CC(Cl)(Cl)Cl)c1ccccc1 (stereo not given) |
| 126 to 129 | CCC1=C(c2cccc(F)c2)C(=O)N(c2ccc(Cl)c(C(F)(F)F)c2)C1 |
| 98 to 99 | Cc1cccc(C)c1NC(=O)CCCc1cccnc1 |
| 188 to 191 | COc1cc(OC)c(OC)cc1CN1CCc2cc(O)ccc2C1 |
| 154 to 155 | CCOC(=O)c1c(CN(CC)CC)nc2sc3c(c2c1-c1ccc(OC)c(OC)c1)CCN(C(=O)Nc1ccccc1)C3 |
| 65 to 66 | c1ccc2c(c1)OCCc1c-2n(CCCN2CCCCC2)c2ccccc12 |
| 119 to 121 | CC(C)[Si](C(C)C)(C(C)C)N1C=C2C=C(Br)OCC3=C2C(=C1)CC3N(C)C (stereo not given) |
| 144 | O=C(NOCC(O)CO)c1cc(Br)c(F)c(F)c1Nc1ccccc1F (stereo not given) |
| 63 to 67 | CCCCC1=NC(NC(=O)C2(NC(=O)CCC(C)C)CCCC2)C(=O)N(Cc2ccccn2)c2ccccc21 (stereo not given) |
| 136 | Cc1cc(SC(=O)N(C)C)c(C(C)(C)C)cc1CO |
| 256 to 257 | O=C(O)c1sccc1SSc1ccsc1C(=O)O |
| 188 to 189 | CC(C)N1C(=O)[C@@H](CCO)O[C@H](c2ccccc2Cl)c2cc(Cl)ccc21 (relative stereo) |
| 197 to 198 | CC1Oc2ccc(CN3CCN(c4ccc(Cl)cn4)CC3)cc2NC1=O (stereo not given) |
| 129 to 130 | Cc1nc(-c2ccccc2)c(CC(C)(C)C(=O)O)o1 |
| 111 to 112 | C=CCOCN1C(C)=C(C(=O)OCC)C(c2cccc([N+](=O)[O-])c2)C(C(=O)OCC)=C1C |
| 211 to 214 | COc1nc(-c2ccc(=O)n(C(C)C)n2)c(-c2ccccc2)nc1N |
| 118 to 125 | CC(=NNCCCC(C)C)C(=O)O |
| > 295 | O=C(O)c1ccc(=O)n(CCNC(=O)c2cccnc2)c1 |
| 204 to 205 | COc1nc(C)cnc1NS(=O)(=O)c1cccnc1-c1ccc(OCc2ccc(C(=O)O)cc2)cc1 |
| > 260 | O=C(c1ccc(Cl)cc1)c1ccc2nccc(C(=O)O)c2c1 |
| 200 | O=c1[nH]c2ccc(CCN3CCN(c4cc(O)cc5cccnc45)CC3)cc2o1 |
| 101 to 103 | CC1(C)C2C(=O)OC(C(Br)(Br)Br)C21 (stereo not given) |
| 102 to 103 | CCOC1=CCc2c(OC)ccc(OC)c2C1 |

| melting point [°C] | Compound |
| --- | --- |
| 72 to 75 | COc1cc(C#N)ccc1C(Br)C(Br)C(=O)c1cccc(C#N)c1 (stereo not given) |
| 128 | CN(C(=O)N[C@@H](Cc1ccc(Oc2nccc3ccncc23)cc1)C(=O)O)c1ccccc1Cc1ccccc1 |
| 185 | O=C(c1ccc(F)c(Cc2ccc(=O)[nH]n2)c1)c1c(Cl)cc(Cl)cc1Cl |
| 161 to 162 | CCc1nn2ccc3c(c2c1CCNC(C)=O)CCO3 |
| 103 to 105 | Clc1ccc2c(c1)CNc1cc(Cl)ccc1O2 |
| 166 to 168 | CN1CCN(c2nc3sc4c(NCc5ccco5)ncnc4c3c3c2COC(C)(C)C3)CC1 |
| 94 to 95 | CCOC(=O)c1ccc(OCCCCCCCCCCCOc2ccc(Cl)cc2)cc1 |
| 153 to 155 | CCOC(=O)CN1CCN(c2cccc(C3=NC(C)(C)Cc4cc(OC)c5c(c43)CC(C)(C)O5)c2)S1(=O)=O |
| 118 | Cc1cccc(CC(=O)c2ccnc(-c3ccc(C=O)cc3)c2)n1 |
| 123 to 124 | COC(=O)c1c(N)cc(Cl)c(Cl)c1Cl |
| 245 to 247 | CC12CCC3c4c(O)cc(O)cc4CCC3C1CCC2=O (stereo not given) |
| 156 to 159 | O=C(Nc1ccc(-n2nc(C(F)(F)F)cc2C(F)(F)F)nc1)c1ccccc1Cl |
| 212 to 214 | COc1cc(-n2nc(C#N)cc2-c2ccc(S(C)(=O)=O)cc2)ccc1Br |
| 117 to 118 | CCCC(CCC)C(=O)NCC(=O)NCCCCCNC(=O)n1cc(F)c(=O)[nH]c1=O |
| 193 to 194 | CN(C)C(=O)COC(=O)c1cc(S(N)(=O)=O)c(Cl)cc1NCc1ccco1 |
| 122 to 124 | O=C1CCCCC1c1c[nH]c2ccccc12 (stereo not given) |
| 155 to 156 | N#CC(C=CC=O)=C(c1ccc(F)cc1)c1ccc(F)cc1 |
| 245 to 246 | COc1ccccc1C1(O)C(=O)Nc2cc(Cl)c(Cl)cc21 (stereo not given) |
| 170 to 178 | COc1ccc(C=O)c2cc(C#N)oc12 |
| 223 to 226 | CC(C)OC(=O)c1cc(-n2c(=O)[nH]c3c(c2=O)CCC3)c(Br)cc1Br |
| 278 | NS(=O)(=O)c1ccc(-c2noc(-c3cnn4c(C(F)F)cc(-c5ccc(C(F)(F)F)cc5)nc34)n2)s1 |
| 225 | O=C(Nc1ccc(Br)cn1)Nc1cccc2c1C1CCCCN1C2=O (stereo not given) |
| 117 | CN(C)NC(=O)N(OCc1ccccc1)C1c2ccccc2Oc2ccccc21 |
| 229 to 230 | Cc1ccc(-c2nc3ccccc3[nH]2)nc1 |
| 218 | O=C(CCN1CCNCC1)Nc1ccc2c(c1)C(=O)c1cc(NC(=O)CCN3CCNCC3)ccc1C2=O |

| melting point [°C] | Compound |
| --- | --- |
| 131 to 132 | CN(C)CCNC(=O)N1CCC(S(=O)(=O)c2ccc(Cl)cc2)C1 (stereo not given) |
| 160 to 164 | COc1ccc(N/C(SC)=C(\C#N)C(N)=O)cc1O |
| 64 to 64.5 | C=CCCn1ncc2c(N)c(C(=O)OCC=C)c(C)nc21 |
| 57 to 58 | C=C1CN(c2ccccc2)C1=O |
| 160 | CCOC(=O)N1CCC(n2c(=O)[nH]c3cc(Cl)ccc32)CC1 |
| 310 to 320 | O=C1NC(=O)C(n2cnc3ccccc32)=C1c1c[nH]c2ccccc12 |
| 277 to 280 | CC12CCC3(CC1CCC1C2CCC2(C)C1CC(O)C2NC=O)OCCO3 (stereo not given) |
| 98 to 100 | OCC(O)Cn1ncc2c(N(Cc3cccc(Cl)c3)C3CCCC3)ncnc21 (stereo not given) |
| 135 to 136 | CC(C)Oc1ccc2c(c1)Oc1cc(F)ccc1S2(=O)=O |
| 172 | O=C(O)c1cc(N2CCN(Cc3ccccc3)CC2)ccc1[N+](=O)[O-] |
| 204 to 207 | Cc1ccc2nc(N3CC[C@H](NCCO)C3)ccc2c1NC(=O)CC1CCCCC1 |
| 141 to 143 | CCCCCCCCCCCCCCN(C(=O)CCCCCCCCCCC)C1(N)OC(CO)C(O)C(O)C1C(=O)C(N)C(=O)C(N)CO (stereo not given) |
| > 280 | O=[N+]([O-])C=Cc1c[nH]c2ccc(-c3ccc4[nH]cnc4c3)cc12 |
| 104 to 106 | Cn1c(-c2ccc(OCC3CO3)cc2)nnc1C(F)(F)F (stereo not given) |
| 95 to 98 | CC(C)c1nc(-c2ccccc2)nc(-c2ccc(F)cc2)c1C=C(Br)Br |
| 111 to 112 | O=P(c1ccccc1)(c1ccccc1)c1ccc(F)cc1F |
| 57.2 | CC(NC(=O)C(N)CC(=O)O)C(=O)NC1C(C)(C)SC1(C)C (stereo not given) |
| 59 to 61 | CCOC(=O)c1c(C)nc(N2CCN(C)CC2)c([N+](=O)[O-])c1Cl |
| 83 to 87 | Cc1cc(C#N)c(Cl)nc1C |
| 140 to 141 | CCOC(=O)c1nc(-c2ccccc2F)c(-c2ccc(=O)n(C(C)C)n2)s1 |
| 130 to 132 | Cc1ccc(OCC#CI)c(Cl)n1 |
| 283 | N#Cc1cc(-n2cnnc2)cc(C(F)(F)F)c1N |

| Compound | melting point [°C] |
| --- | --- |
| Cc1cc(C(C)(C)C)c(OP2OCCN2C(C)(C)C)c(C(C)(C)C)c1 (stereo not given) | 105 to 107 |
| N#Cc1nn(-c2c(Cl)cc(C(F)(F)F)cc2Cl)cc1C#CBr | 166 to 168 |
| COc1c(S(=O)C(F)(F)F)c(C#N)nn1-c1c(Cl)cc(C(F)(F)F)cc1Cl (stereo not given) | 136 to 137 |
